From ChEMBL document CHEMBL4390682, “Purification, structural elucidation, antioxidant capacity and neuroprotective potential of the main polyphenolic compounds contained in Achyrocline satureioides (Lam) D.C. (Compositae)” (Bioorg Med Chem, 2019)
Active and inactive are the calls of the source. The calls are words filed in the database; no cut-off is given here.

tested on: not listed separately; test: Antioxidant activity in pH 7.4 PBS assessed as ABTS+ radical scavenger activity incubated under absence of light for 16 hrs; type: functional; conditions: not given

For O=c1c(O[C@@H]2O[C@H](CO)[C@@H](O)[C@H](O)[C@H]2O)c(-c2ccc(O)c(O)c2)oc2cc(O)cc(O)c12 [ISOQUERCETIN], which EC50 is on record?
The EC50 was 152 µM.

Which EC50 does the source give for O=c1cc(-c2ccc(O)c(O)c2)oc2cc(O)cc(O)c12 [LUTEOLIN] here?
Its EC50 is 46 µM.

With COc1c(-c2ccc(O)c(O)c2)oc2cc(O)cc(O)c2c1=O [3-O-METHYLQUERCETIN] as the molecule, how does the EC50 read?
Its EC50 is 45 µM.

Which EC50 does the source give for O=c1c(O)c(-c2ccc(O)c(O)c2)oc2cc(O)cc(O)c12 [QUERCETIN] here?
The EC50 was 9.6 µM.

organism: Rattus norvegicus; test: Neuroprotective activity in Sprague-Dawley rat CGN cells assessed as protection against H2O2-induced cytotoxicity by measuring increase in cell viability at 5 to 100 uM pre-incubated for 24 hrs before H2O2 stimulation for 24 hrs by MTT assay; type: functional; conditions: not given

With O=c1c(O[C@@H]2O[C@H](CO)[C@@H](O)[C@H](O)[C@H]2O)c(-c2ccc(O)c(O)c2)oc2cc(O)cc(O)c12 [ISOQUERCETIN] as the molecule, how does the Activity read?
Its Activity is “Active”.

Which Activity does the source give for O=c1cc(-c2ccc(O)c(O)c2)oc2cc(O)cc(O)c12 [LUTEOLIN] here?
The Activity was “Active”.

Which Activity does the source give for COc1c(-c2ccc(O)c(O)c2)oc2cc(O)cc(O)c2c1=O [3-O-METHYLQUERCETIN] here?
Its Activity is “inactive”.

Which Activity does the source give for O=c1c(O)c(-c2ccc(O)c(O)c2)oc2cc(O)cc(O)c12 [QUERCETIN] here?
The Activity was “Active”.

tested on: not listed separately; test: Antioxidant activity in pH 7.4 PBS assessed as reactivity against GSH at 50 uM incubated for 10 mins in presence of HRP and H2O2 in presence of 40 uM GSH by HPLC-DAD and HPLC-MS/MS analysis relative to control; type: functional; conditions: not given

With O=c1c(O[C@@H]2O[C@H](CO)[C@@H](O)[C@H](O)[C@H]2O)c(-c2ccc(O)c(O)c2)oc2cc(O)cc(O)c12 [ISOQUERCETIN] as the molecule, how does the Activity read?
The Activity was “Active”.

For O=c1cc(-c2ccc(O)c(O)c2)oc2cc(O)cc(O)c12 [LUTEOLIN], which Activity is on record?
The Activity was “Active”.

For COc1c(-c2ccc(O)c(O)c2)oc2cc(O)cc(O)c2c1=O [3-O-METHYLQUERCETIN], which Activity is on record?
Its Activity is “Active”.

For O=c1c(O)c(-c2ccc(O)c(O)c2)oc2cc(O)cc(O)c12 [QUERCETIN], which Activity is on record?
Its Activity is “Active”.

tested on: Brain; test: Antioxidant activity in Sprague-Dawley rat brain homogenates assessed as inhibition of lipoperoxidation incubated for 40 mins by fluorescence based assay; type: functional, tissue-based; conditions: not given

With O=c1c(O[C@@H]2O[C@H](CO)[C@@H](O)[C@H](O)[C@H]2O)c(-c2ccc(O)c(O)c2)oc2cc(O)cc(O)c12 [ISOQUERCETIN] as the molecule, how does the EC50 read?
Its EC50 is 94 µM.

For O=c1cc(-c2ccc(O)c(O)c2)oc2cc(O)cc(O)c12 [LUTEOLIN], which EC50 is on record?
Its EC50 is 79 µM.

With COc1c(-c2ccc(O)c(O)c2)oc2cc(O)cc(O)c2c1=O [3-O-METHYLQUERCETIN] as the molecule, how does the EC50 read?
The EC50 was 74 µM.

For O=c1c(O)c(-c2ccc(O)c(O)c2)oc2cc(O)cc(O)c12 [QUERCETIN], which EC50 is on record?
Its EC50 is 5.7 µM.

tested on: not listed separately; test: GSH reactivity in pH 7.4 PBS assessed as GSH-adduct formation at 50 uM incubated for 10 mins in presence of HRP and H2O2 in presence of 40 uM GSH by HPLC-DAD and HPLC-MS/MS analysis relative to control; type: physicochemical; conditions: buffer, pH 7.4, 10 min

With O=c1c(O)c(-c2ccc(O)c(O)c2)oc2cc(O)cc(O)c12 [QUERCETIN] as the molecule, how does the Activity read?
The Activity was “Active”.

tested on: not listed separately; test: GSH reactivity in pH 7.4 PBS assessed as hydroxylated quercetin formation at 50 uM incubated for 10 mins in presence of HRP and H2O2 in presence of 40 uM GSH by HPLC-DAD and HPLC-MS/MS analysis relative to control; type: physicochemical; conditions: buffer, pH 7.4, 10 min

For O=c1c(O)c(-c2ccc(O)c(O)c2)oc2cc(O)cc(O)c12 [QUERCETIN], which Activity is on record?
The Activity was “Active”.

tested on: not listed separately; test: Antioxidant activity in pH 7.4 PBS assessed as H2O2 oxidation at 50 uM incubated for 10 mins in presence of HRP and H2O2 by UV spectroscopy and HPLC analysis relative to control; type: functional; conditions: not given

For O=c1c(O[C@@H]2O[C@H](CO)[C@@H](O)[C@H](O)[C@H]2O)c(-c2ccc(O)c(O)c2)oc2cc(O)cc(O)c12 [ISOQUERCETIN], which Activity is on record?
Its Activity is 15%.

With O=c1cc(-c2ccc(O)c(O)c2)oc2cc(O)cc(O)c12 [LUTEOLIN] as the molecule, how does the Activity read?
Its Activity is 25%.

Which Activity does the source give for COc1c(-c2ccc(O)c(O)c2)oc2cc(O)cc(O)c2c1=O [3-O-METHYLQUERCETIN] here?
The Activity was 0%.

With O=c1c(O)c(-c2ccc(O)c(O)c2)oc2cc(O)cc(O)c12 [QUERCETIN] as the molecule, how does the Activity read?
The Activity was 90%.
